One test deals with prostate cancer cells. Put plainly: Sensitivity of prostate cancer cells to CCI-779. Format: cell-based. To be noted: some prostate cancer cells, data not shown.
In another test the test system is LNCaP cells. To be noted: MTT assay, FIG. 1A. On the procedure:
(§1) Human prostatic cancer cell lines LNCaP, DU-145, PC-3, and Tsu-prl were obtained from ATCC. LNCaP cancer cells were maintained in humidified atmosphere of 5% CO2 in air in RPMI 1640 medium supplemented with 10% fetal calf serum (Life Technologies, Inc, Rockville, Md.), 3 mM L-glutamine, 100 μg/ml streptomycin and 100 units/ml penicillin. Other lines were maintained in DMEM containing 3 mM L-glutamine, 100 μg/ml streptomycin, 100 units/ml penicillin, and 10% FCS in humidified atmosphere of 5% CO2. To examine the effects of steroids, cells were cultured in RPMI 1640 medium containing 5% FCS treated with dextran coated charcoal (Hyclone, Logan, Utah) for 24 hs before treatment. Cells were grown in the absence or presence of 10 nM DHT for 0, 2, 4, 6, 12, 24, 48, and 72 hs. They were collected and frozen at each time point. Two hundred μl of medium were collected from each flask for PSA assay.
To verify the effect of DHT on the growth of LNCaP cells, cells at 3,000 cells/well were plated in 96-well plates for 24 hs before treatment with DHT. After 72 hs, MTT was added to each well and incubated at 37° C. for four hs. At the end of incubation, the supernatant was removed and 100 μl DMSO was added to each well to dissolve […]. Plates were subsequently read in a plate reader at […].

Test [1] relates to FKBP54. To be noted: LNCaP cells, 10 nM DHT, mRNA frequency. The method, then: as §1
The test system of test [2] is FKBP54. Put plainly: Western blot analysis of FKBP54 protein in LNCaP cells. It is filed as cell-based, human. On the procedure:
For Western blot analysis, LNCaP cells were plated in 6-well plate at 1×10^6 cells/well in charcoal stripped serum containing medium. Cells were treated with 10 nM DHT and harvested at designated time. Cells were harvested in MPER reagent (Pierce, Rockford, Ill.) containing 400 mM NaCl. […] The PVDF membrane was incubated in TBST (TBS with 0.1% Tween-20) with 3% milk for 15 minutes before the addition of the first antibody, rabbit anti-FKBP54 (Affinity Bioreagents, Inc). After overnight incubation, the PVDF membrane was washed 3 times with TBST and incubated with a second antibody, anti-rabbit-IgG coupled with horseradish peroxidase (Transduction Labs) for one hour. The PVDF membrane was then washed 3 times with TBST and protein was detected by using an enhanced chemiluminescence detection system (Pierce).

Test [3] concerns PSA.
Test [4] has as its system PSA. To be noted: LNCaP cells, 10 nM DHT, mRNA frequency.
Another test has as its system androgen receptor (AR). Kind of test: Transient transfection of COS-1 cells, GREe1bLuc luciferase reporter of AR transcriptional activity. To be noted: COS-1 cells transfected with FKBP54 expression vector. It is filed as cell-based. The method, then: Bars represent the mean of at least three independent experiments±SD. To determine the effect of FKBP54 on the transcriptional activity of androgen receptor (AR), COS-1 cells were transiently transfected with a reporter construct containing androgen receptor response element along with an expression vector encoding FKBP54. […] The next morning, medium were replaced with 2-ml DMEM. Indicated amount of DNA in 100 μl of DMEM was mixed with 6 μl of PLUS reagent (Gibco) and incubated at room temperature while 4 μl of lipofectamine was mixed with 100 μl of DMEM. […] After incubation with DNA for 4 hours, 2 ml of phenol red-free DMEM containing 10% charcoal-stripped fetal bovine serum was added and cells treated with indicated chemicals for additional 24 hours before being harvested. Luciferase activity was determined using Promega's STEADY GLO™ Luciferase Assay System.

Like-named read-outs stand apart in the source and are kept apart here.

Consider `CO[C@H]1C[C@@H]2CC[C@@H](C)[C@@](O)(O2)C(=O)C(=O)N2CCCC[C@H]2C(=O)O[C@H]([C@H](C)C[C@@H]2CC[C@@H](OC(=O)C(C)(CO)CO)[C@H](OC)C2)CC(=O)[C@H](C)/C=C(\C)[C@@H](O)[C@@H](OC)C(=O)[C@H](C)C[C@H](C)/C=C/C=C/C=C/1C` [CCI-779], for which the “sensitivity of prostate cancer cells” value in the test with prostate cancer cells is listed as “sensitive”.

As to `C[C@]12CCC(=O)C[C@@H]1CC[C@@H]1[C@@H]2CC[C@]2(C)[C@@H](O)CC[C@@H]12` [DHT, dihydrotestosterone], the “growth of LNCaP cells” value with LNCaP cells was “stimulated by a natural androgen DHT in a dose-dependent manner”. The “FKBP54 expression induction relative to baseline” value in the test with FKBP54 [1] (6 hours) stood at 2 fold. In addition, the “FKBP54 expression induction relative to baseline (peak)” value with FKBP54 [1] (24 hours) is “approximately 4 fold”. The “FKBP54 protein expression (Western blot, blot not shown)” value with FKBP54 [2] is “upregulated the FKB54 expression in a time-dependent manner”. In addition, the “increase in level of FKBP54 expression” value was “approximately two-fold” with FKBP54 [2] (24 hours post exposure) and “approximately 4 fold” in the test on FKBP54 [2] (72 hours post exposure). Besides, the “Quantitative Expression Levels of FKBP54 (band density values)” value (from here on “Quantitative Expression Levels of FKBP54”) is 8.5 in the test with FKBP54 [2] (time 0 hr); 9.0 in the test with FKBP54 [2] (time 2 hr); 9.8 in the test on FKBP54 [2] (time 6 hr); 8.0 in the test with FKBP54 [2] (time 12 hr); 12.0 in the test with FKBP54 [2] (time 24 hr); 23.0 with FKBP54 [2] (time 48 hr). In the test with FKBP54 [2] (time 72 hr), the “Quantitative Expression Levels of FKBP54” value was 30.2. The PSA production entry in the test on PSA [3] is recorded as “increased in a dose-dependent manner”. Moreover, in the test with PSA [3], the “time at which PSA signal was first detected” value stood at 12 h. Moreover, the “time of maximal PSA level” value in the test with PSA [3] is recorded as “about 48 hs”. The “PSA expression increase relative to control” value in the test on PSA [4] (12 hours) is recorded as 3 fold; with PSA [4] (72 hours), “approximately 4 fold”.

As to `C[C@]1(O)CC[C@H]2[C@@H]3CCC4=CC(=O)CCC4=C3C=C[C@@]21C` [R1881], in the test on FKBP54 [2], the “FKBP54 protein expression (Western blot, blot not shown)” value is listed as “could also upregulate the FKBP54 expression”. Also, the figures for the “increase in level of FKBP54 expression” value with FKBP54 [2] (24 hours post exposure) and in the test with FKBP54 [2] (72 hours post exposure) were ~10 fold and “approximately 30 fold”, respectively. Besides, the “Quantitative Expression Levels of FKBP54” value with FKBP54 [2] (time 0 hr) was 1.8; in the test with FKBP54 [2] (time 2 hr) it was 5.3; with FKBP54 [2] (time 6 hr) it was 5.9; in the test with FKBP54 [2] (time 12 hr), 5.0; in the test with FKBP54 [2] (time 24 hr), 20.1; in the test with FKBP54 [2] (time 48 hr) it was 27.2. Besides, the “Quantitative Expression Levels of FKBP54” value in the test on FKBP54 [2] (time 72 hr) is 34.4.

B1: FKBP54: member of the immunophilin family, FK binding protein; transfected as expression vector encoding FKBP54 (protein, UniProt Q13451 1-457, looked up)
Peptidyl-prolyl cis-trans …: MTTDEGAKNNEESPTATVAEQGEDITSKKDRGVLKIVKRVGNGEETPMIGDKVYVHYKGKLSNGKKFDSSHDRNEPFVFSLGKGQVIKAWDIGVATMKKGEICHLLCKPEYAYGSAGSLPKIPSNATLFFEIELLDFKGEDLFEDGGIIRRTKRKGEGYSNPNEGATVEIHLEGRCGGRMFDCRDVAFTVGEGEDHDIPIGIDKALEKMQREEQCILYLGPRYGFGEAGKPKFGIEPNAELIYEVTLKSFEKAKESWEMDTKEKLEQAAIVKEKGTVYFKGGKYMQAVIQYGKIVSWLEMEYGLSEKESKASESFLLAAFLNLAMCYLKLREYTKAVECCDKALGLDSANEKGLYRRGEAQLLMNEFESAKGDFEKVLEVNPQNKAARLQISMCQKKAKEHNERDRRIYANMFKKFAEQDAKEEANKAMGKKTSEGVTNEKGTDSQAMEEEKPEGHV
As to B1, the “increase of AR activity” value in the test on androgen receptor (AR) (in the presence of androgen (10^-9 M R1881)) is reported as “more than 30%”. For the same molecule, the “effect on the reporter activity” value with androgen receptor (AR) (without androgen) is “no effect”.
